Assay results as given in ChEMBL document CHEMBL2331389, “Structure-based discovery of cellular-active allosteric inhibitors of FAK” (Bioorg Med Chem Lett, 2013).

Assays:
[1] = biological target: T1, Focal adhesion kinase 1 (Homo sapiens, UniProt Q05397)
[2] = biological target: RAC-alpha serine/threonine-protein kinase (Homo sapiens, UniProt P31749); test: Inhibition of Akt1 (unknown origin)
[3] = biological target: T1, Focal adhesion kinase 1; remark: listed apart in the source
[4] = biological target: Receptor tyrosine-protein kinase erbB-2 (Homo sapiens, UniProt P04626); test: Inhibition of HER2 (unknown origin)
Chain of Receptor tyrosine-protein kinase erbB-2 (P04626 whole entry): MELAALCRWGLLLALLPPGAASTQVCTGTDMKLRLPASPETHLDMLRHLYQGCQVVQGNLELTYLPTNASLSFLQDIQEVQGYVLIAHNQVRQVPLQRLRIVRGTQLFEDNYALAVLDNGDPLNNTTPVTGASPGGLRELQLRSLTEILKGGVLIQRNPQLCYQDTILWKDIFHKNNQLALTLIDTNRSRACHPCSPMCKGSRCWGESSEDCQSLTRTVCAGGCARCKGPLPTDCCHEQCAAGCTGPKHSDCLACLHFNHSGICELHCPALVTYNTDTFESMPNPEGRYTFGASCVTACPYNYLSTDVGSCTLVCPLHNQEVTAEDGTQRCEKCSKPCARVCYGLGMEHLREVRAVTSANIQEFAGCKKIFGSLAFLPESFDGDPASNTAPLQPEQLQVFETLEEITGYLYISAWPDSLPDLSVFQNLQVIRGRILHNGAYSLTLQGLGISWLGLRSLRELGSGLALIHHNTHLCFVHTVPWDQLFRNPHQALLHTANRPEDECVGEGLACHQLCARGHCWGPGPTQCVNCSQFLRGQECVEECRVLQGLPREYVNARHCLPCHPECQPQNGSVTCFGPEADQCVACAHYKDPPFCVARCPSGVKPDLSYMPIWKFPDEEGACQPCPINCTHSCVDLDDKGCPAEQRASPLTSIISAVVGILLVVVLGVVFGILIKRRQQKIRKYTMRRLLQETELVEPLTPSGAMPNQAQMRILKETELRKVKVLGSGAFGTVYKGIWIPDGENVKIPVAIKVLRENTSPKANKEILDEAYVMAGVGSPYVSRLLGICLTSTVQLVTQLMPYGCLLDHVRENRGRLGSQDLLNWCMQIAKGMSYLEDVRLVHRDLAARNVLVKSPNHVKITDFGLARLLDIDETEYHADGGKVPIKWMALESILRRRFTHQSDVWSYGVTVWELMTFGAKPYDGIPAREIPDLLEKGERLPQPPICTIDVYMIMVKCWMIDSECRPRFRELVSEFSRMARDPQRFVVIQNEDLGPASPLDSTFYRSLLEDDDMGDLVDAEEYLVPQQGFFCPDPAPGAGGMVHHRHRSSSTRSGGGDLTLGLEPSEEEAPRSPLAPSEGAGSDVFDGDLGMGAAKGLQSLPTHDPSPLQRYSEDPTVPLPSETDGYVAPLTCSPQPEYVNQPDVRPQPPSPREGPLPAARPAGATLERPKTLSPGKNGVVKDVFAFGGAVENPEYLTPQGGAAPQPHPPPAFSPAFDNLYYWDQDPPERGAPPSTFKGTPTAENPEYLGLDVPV

[5] = biological target: Mitogen-activated protein kinase 14 (Homo sapiens, UniProt Q16539); test: Inhibition of p38alpha (unknown origin)
Chain of Mitogen-activated protein kinase 14 (Q16539 whole entry): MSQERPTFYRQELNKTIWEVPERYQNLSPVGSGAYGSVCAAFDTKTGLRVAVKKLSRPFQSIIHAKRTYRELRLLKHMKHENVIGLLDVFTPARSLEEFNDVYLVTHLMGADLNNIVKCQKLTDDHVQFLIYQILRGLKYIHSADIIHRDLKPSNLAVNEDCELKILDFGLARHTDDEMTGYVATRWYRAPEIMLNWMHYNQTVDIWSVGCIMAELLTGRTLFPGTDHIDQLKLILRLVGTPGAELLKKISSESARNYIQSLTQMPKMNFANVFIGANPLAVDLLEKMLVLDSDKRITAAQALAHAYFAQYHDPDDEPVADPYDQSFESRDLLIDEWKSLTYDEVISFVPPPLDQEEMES

[6] = biological target: Dual specificity mitogen-activated protein kinase kinase 1 (Homo sapiens, UniProt Q02750); test: Inhibition of MEK1 (unknown origin)
Chain of Dual specificity mitogen-activated protein kinase kinase 1 (Q02750 whole entry): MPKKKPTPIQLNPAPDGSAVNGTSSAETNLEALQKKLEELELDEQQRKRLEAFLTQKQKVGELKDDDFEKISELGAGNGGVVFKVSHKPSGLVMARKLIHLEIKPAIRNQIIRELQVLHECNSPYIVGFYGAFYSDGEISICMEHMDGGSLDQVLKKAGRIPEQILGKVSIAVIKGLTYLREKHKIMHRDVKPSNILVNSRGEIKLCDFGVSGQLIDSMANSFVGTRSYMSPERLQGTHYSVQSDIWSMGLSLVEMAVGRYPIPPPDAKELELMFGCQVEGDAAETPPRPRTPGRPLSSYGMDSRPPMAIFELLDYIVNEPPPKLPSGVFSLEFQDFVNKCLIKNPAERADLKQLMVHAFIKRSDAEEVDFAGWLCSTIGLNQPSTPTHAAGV

[7] = biological target: Proto-oncogene tyrosine-protein kinase Src (Homo sapiens, UniProt P12931); test: Inhibition of Src (unknown origin)
Chain of Proto-oncogene tyrosine-protein kinase Src (P12931 2-536 limits assumed): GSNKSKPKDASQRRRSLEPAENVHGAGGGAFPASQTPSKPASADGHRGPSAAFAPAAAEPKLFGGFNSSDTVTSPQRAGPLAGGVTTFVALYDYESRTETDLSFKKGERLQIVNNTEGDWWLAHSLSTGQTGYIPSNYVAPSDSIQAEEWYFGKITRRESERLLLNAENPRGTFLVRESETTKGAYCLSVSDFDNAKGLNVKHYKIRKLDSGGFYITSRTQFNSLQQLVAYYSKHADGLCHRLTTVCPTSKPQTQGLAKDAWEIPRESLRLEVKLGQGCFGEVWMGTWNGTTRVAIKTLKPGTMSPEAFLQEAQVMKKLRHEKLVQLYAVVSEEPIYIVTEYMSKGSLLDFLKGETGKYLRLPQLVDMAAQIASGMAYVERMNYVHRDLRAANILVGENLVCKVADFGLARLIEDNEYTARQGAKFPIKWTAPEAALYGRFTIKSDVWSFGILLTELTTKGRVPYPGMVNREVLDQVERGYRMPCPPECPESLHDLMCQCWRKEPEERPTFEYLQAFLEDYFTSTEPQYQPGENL

[8] = biological target: Aurora kinase B (Homo sapiens, UniProt Q96GD4); test: Inhibition of aurora-B (unknown origin)
Chain of Aurora kinase B (Q96GD4 whole entry): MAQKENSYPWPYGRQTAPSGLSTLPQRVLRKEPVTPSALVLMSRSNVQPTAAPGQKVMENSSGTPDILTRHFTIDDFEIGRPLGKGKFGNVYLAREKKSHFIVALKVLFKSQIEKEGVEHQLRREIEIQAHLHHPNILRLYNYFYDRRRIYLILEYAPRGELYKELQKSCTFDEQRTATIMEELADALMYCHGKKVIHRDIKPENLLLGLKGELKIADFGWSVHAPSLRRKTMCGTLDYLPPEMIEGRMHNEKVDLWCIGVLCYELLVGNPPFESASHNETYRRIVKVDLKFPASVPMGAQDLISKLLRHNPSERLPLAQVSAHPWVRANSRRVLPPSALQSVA

[9] = biological target: Protein-tyrosine kinase 2-beta (Homo sapiens, UniProt Q14289); test: Inhibition of Pyk2 (unknown origin)

Chain of RAC-alpha serine/threonine-protein kinase (P31749 whole entry): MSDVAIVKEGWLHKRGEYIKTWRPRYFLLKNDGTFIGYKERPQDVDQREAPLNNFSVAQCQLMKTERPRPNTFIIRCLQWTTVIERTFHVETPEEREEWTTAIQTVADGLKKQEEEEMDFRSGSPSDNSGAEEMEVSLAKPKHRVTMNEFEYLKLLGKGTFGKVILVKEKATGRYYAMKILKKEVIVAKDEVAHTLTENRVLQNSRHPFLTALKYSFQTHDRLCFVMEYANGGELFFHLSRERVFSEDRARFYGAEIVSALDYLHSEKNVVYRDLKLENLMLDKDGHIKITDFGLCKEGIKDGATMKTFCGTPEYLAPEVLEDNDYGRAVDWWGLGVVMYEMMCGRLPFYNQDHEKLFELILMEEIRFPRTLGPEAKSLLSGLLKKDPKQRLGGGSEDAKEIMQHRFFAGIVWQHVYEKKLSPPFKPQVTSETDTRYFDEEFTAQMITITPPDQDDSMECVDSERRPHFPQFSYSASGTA
T1 sequence (Q05397 whole entry): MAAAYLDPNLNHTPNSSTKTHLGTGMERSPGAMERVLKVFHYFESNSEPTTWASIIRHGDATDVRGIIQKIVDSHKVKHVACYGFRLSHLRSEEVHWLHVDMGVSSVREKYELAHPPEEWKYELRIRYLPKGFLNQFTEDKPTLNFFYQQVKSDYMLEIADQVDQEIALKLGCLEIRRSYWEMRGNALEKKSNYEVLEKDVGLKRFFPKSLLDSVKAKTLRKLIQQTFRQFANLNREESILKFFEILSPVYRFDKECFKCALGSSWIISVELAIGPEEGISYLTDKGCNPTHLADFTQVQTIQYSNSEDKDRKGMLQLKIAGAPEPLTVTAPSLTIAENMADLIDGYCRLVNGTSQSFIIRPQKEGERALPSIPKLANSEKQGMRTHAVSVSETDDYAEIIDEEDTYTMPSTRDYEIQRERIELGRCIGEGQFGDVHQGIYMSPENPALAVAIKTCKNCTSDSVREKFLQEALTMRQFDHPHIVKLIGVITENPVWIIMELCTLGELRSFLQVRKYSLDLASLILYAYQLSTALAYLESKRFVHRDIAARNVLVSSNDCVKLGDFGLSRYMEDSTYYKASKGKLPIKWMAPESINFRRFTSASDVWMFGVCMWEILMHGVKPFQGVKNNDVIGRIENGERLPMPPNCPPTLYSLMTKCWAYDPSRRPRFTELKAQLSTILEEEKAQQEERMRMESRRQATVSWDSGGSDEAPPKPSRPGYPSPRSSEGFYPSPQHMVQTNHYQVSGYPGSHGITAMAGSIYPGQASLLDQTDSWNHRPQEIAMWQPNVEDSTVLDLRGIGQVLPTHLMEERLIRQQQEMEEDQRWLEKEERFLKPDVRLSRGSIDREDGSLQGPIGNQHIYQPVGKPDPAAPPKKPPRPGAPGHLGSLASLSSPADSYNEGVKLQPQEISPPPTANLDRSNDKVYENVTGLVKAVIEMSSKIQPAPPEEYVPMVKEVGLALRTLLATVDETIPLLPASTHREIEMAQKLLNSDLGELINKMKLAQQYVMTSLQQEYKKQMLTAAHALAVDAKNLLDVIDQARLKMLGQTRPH

Compound | IC50 [1] [µM] | IC50 [2] [µM] | IC50 [3] [µM] | IC50 [4] [µM] | IC50 [5] [µM] | IC50 [6] [µM] | IC50 [7] [µM] | IC50 [8] [µM] | IC50 [9] [µM]
CCc1ccc(-c2ccc3c(c2)-c2c(cnn2C)S(=O)(=O)N3C)cc1 | 0.077 | > 10 | 0.42 | > 10 | > 10 | > 10 | > 10 | > 10 | > 10
CN1c2ccc(NCc3ccc(C(C)(C)C)cc3)cc2-c2c(cnn2C)S1(=O)=O |  | > 10 |  | > 10 | > 10 | > 10 | > 10 | > 10 | > 10
CN1c2ccc(C(=O)Nc3ccc(F)cc3)cc2-c2c(cnn2C)S1(=O)=O | > 30 |  |  |  |  |  |  |  | 
CCc1ccc(-c2ccc3c(c2)-c2c(cnn2CC)S(=O)(=O)N3C)cc1 | 2.1 |  |  |  |  |  |  |  | 

Results, then the molecule that gave them:

IC50 [1] [µM] | IC50 [2] [µM] | IC50 [3] [µM] | IC50 [4] [µM] | IC50 [5] [µM] | IC50 [6] [µM] | IC50 [7] [µM] | IC50 [8] [µM] | IC50 [9] [µM] | Compound
> 30 |  |  |  |  |  |  |  |  | CCc1ccc(-c2ccc3c(c2)-c2nn(C)cc2S(=O)(=O)N3C)cc1
 | > 10 |  | > 10 | > 10 | 8.6 | > 10 | 5.1 |  | CCc1ccc(-c2ccc3c(c2)-c2n[nH]cc2S(=O)(=O)N3C)cc1
